Patent US20250375417A1, “OREXIN RECEPTOR 2 (OX2R) AGONIST FOR USE IN NARCOLEPSY TYPE 1 (NT1)” (TAKEDA PHARMACEUTICAL COMPANY LIMITED, priority 2024, published 2025)

Key:
Format in all cases: in vivo, human
participants with NT1 [1] = experiment: Maintenance of Wakefulness Test (MWT) sleep onset latency, Phase 2 NT1 trial (Example 1)
Procedure: In some aspects of the methods described herein, the subject experiences a higher mean sleep latency (also referred to as sleep onset latency or SOL) from the Maintenance of Wakefulness Test (MWT) after a treatment period compared to an untreated subject. The MWT is a validated, objective measure that evaluates a person's ability to remain awake under soporific conditions for a defined period of time. Because there is no biological measure of wakefulness, wakefulness is measured indirectly by the inability or delayed tendency to fall asleep. This tendency to fall asleep is measured via electroencephalography-derived sleep latency in the MWT. One MWT, that includes four 40-minute wake trials, is done on each day specified in the Schedule of Activities of the trial. Sleep latency in each wake trial is recorded. Participants are required to stay awake in between the 4 MWT wake trials.
During each MWT wake trial, participants are instructed to sit in a bed or reclining chair and remain awake for as long as possible in a dimly lit room. Wake trials are ended after 40 minutes if no sleep occurs. If no sleep has been observed according to these rules, then the latency is defined as 40 minutes.
Randomization was stratified by region. Starting on the morning of Day 1, the study drug was administered at approximately the same time each day for 8 or 12 weeks. If the participant wished to enroll in the long-term extension (LTE) study described in Example 3 but the LTE study had not started at the participant's site when the participant completed the Week 8 visit of the current study, the participant was allowed to continue in the current study for an additional 4 weeks.
The following doses were studied: • Compound A Dose Regimen 1:0.5 mg twice daily approximately 3 hours apart. • Compound A Dose Regimen 2:2 mg twice daily approximately 3 hours apart. • Compound A Dose Regimen 3:2 mg followed by 5 mg approximately 3 hours apart. • Compound A Dose Regimen 4:7 mg once daily (QD). • Other products required for the study: Matching placebo.
Dose regimens included once daily (QD) or twice daily (approximately 3 hours apart) dosing. Study treatment was administered at approximately 8 AM and 11 AM. (Participants assigned to a QD dose regimen received placebo for the second dose. Participants assigned to placebo received placebo for both doses).
Endpoints included change from baseline to Week 8 in mean sleep onset latency on the Maintenance of Wakefulness Test (SOL-MWT; primary endpoint), ESS total score, weekly cataplexy rate (WCR), and occurrence of treatment-emergent adverse events (TEAEs).

participants with NT1 [2] = experiment: Epworth Sleepiness Scale (ESS), Phase 2 NT1 trial
Text: In some aspects of the methods described herein, the subject experiences a lower Epworth Sleepiness Scale (ESS) total score after a treatment period compared to an untreated subject. The ESS is a subjective, self-administered scale that has been validated and used extensively as a key endpoint in studies in patients with narcolepsy to measure excessive daytime sleepiness (EDS). The ESS provides individuals with 8 different situations of daily life and asks them how likely they are to fall asleep in those situations (scored 0 to 3) and to try to imagine their likelihood of dozing even if they have not actually been in the identical situation; the scores are summed to give an overall score of 0 to 24. Higher scores indicate stronger subjective daytime sleepiness, and scores below 10 are considered to be within the reference range.
In certain aspects, the ESS is administered to assess sleep propensity on selected days indicated in the Schedule of Activities for the trial. Participants are asked to evaluate their subjective sleepiness based on recalling their most recent daily life experiences.
Randomization was stratified by region. Starting on the morning of Day 1, the study drug was administered at approximately the same time each day for 8 or 12 weeks. […]

participants with NT1 [3] = experiment: Narcolepsy Severity Scale for Clinical Trials (NSS-CT), Phase 2 NT1 trial
Text: Severity of NT1 symptoms can be assessed through the use of the NSS-CT. The NSS-CT is a 15-item self-administered questionnaire (total score: 0-57) that assesses the severity and consequences of the 5 major narcolepsy symptoms such as daytime sleepiness, cataplexy, hallucinations, sleep paralysis, and disrupted nighttime sleep (DNS). […] Further, the symptom number was associated with diagnosis delay, age at onset, and ESS and Beck Depression Inventory scores (Dauvilliers et al. 2020).
Methods: An analysis of exploratory data from the study was conducted to explore disease severity in individuals with ICSD-3 confirmed NT1. Eligible participants were age 18-70 years (Japan: 16-70), with an Epworth Sleepiness Scale (ESS) score>12, and >4 partial/complete episodes of cataplexy/week. Exploratory endpoints included change from baseline to Week 8 in the narcolepsy Severity Scale for clinical trials (NSS-CT), and Clinical Global Impression (CGI) and Patient Global Impression (PGI) at Week 8. The NSS-CT, a validated, self-administered 15-item scale, evaluates the severity, frequency, and impact of five main narcolepsy symptoms (higher scores indicate more severe symptoms).

participants with NT2 = experiment: Safety (TEAEs), Phase 2 NT2 trial
Procedure: The principal mitigation strategy for risks related to BP increase, HR increase, insomnia, and bladder events included appropriate selection of the study population; use of the inpatient clinical research unit setting and home health visits, which permitted close monitoring and rapid institution of appropriate care as needed; appropriate specified monitoring procedures; and use of experienced staff trained in study procedures. To mitigate cardiovascular risks, BP and HR were measured frequently in this study; cardiovascular effects were evaluated by using BP and HR assessments and electrocardiographic (ECG) assessments. Stopping rules for individual participants and the overall study were established. In addition, because liver function test (LFT) elevation cases have been observed in another OX2R agonist with structural similarity, LFTs (ALT, AST, GGT, and total bilirubin) were closely monitored.
Liver function test (LFTs) (alanine aminotransferase [ALT], aspartate aminotransferase [AST], γ-glutamyl transferase [GGT], and total bilirubin) were closely monitored in this study. Stopping criteria for individual participants and the overall study, based on abnormal LFTs were established.
Eligible participants were age 18-70 years, with Epworth Sleepiness Scale (ESS) score>12 and no other current EDS-related medical conditions. Participants were randomized 1:1:1 to daily oral Compound A 2 mg twice 3 hours apart, 2 mg then 5 mg 3 hours later, or placebo. Study endpoints included change from baseline to Week 8 in mean Sleep Onset Latency on the Maintenance of Wakefulness Test (mean SOL-MWT; primary endpoint), ESS total score, and incidence of treatment-emergent adverse events (TEAEs). Participants who completed the placebo-controlled study could enroll in a ˜2-year Long Term Extension (LTE) study. LTE TEAE data up to Jan. 25, 2024 are reported.

CCS(=O)(=O)N[C@@H]1[C@H](Cc2cccc(-c3cc(F)cc(F)c3)c2F)N(C(=O)C(C)(C)O)CC1(F)F [Compound A, N-{(2S,3R)-4,4-difluoro-1-(2-hydroxy-2-methylpropanoyl)-2-[(2,3′,5′-trifluoro[1,1′-biphenyl]-3-yl)methyl]pyrrolidin-3-yl}ethanesulfonamide]
LS mean (SE) change from baseline to Week 8 in SOL-MWT (participants with NT1 [1]; 0.5 mg/0.5 mg): 12.49 (2.13) minutes
LS mean (SE) change from baseline to Week 8 in SOL-MWT (participants with NT1 [1]; 2 mg/2 mg): 23.50 (2.04) minutes
LS mean (SE) change from baseline to Week 8 in SOL-MWT (participants with NT1 [1]; 2 mg/5 mg): 25.42 (2.07) minutes
LS mean (SE) change from baseline to Week 8 in SOL-MWT (participants with NT1 [1]; 7 mg): 14.96 (1.95) minutes
Change from baseline to Week 8 in ESS versus placebo (participants with NT1 [2]; all dose groups, adjusted for multiple comparisons): statistically significant changes
Participants with ESS≤10 (participants with NT1 [2]; weeks 4 and 8 (FIG. 4)): Most participants achieved ESS total score≤10
NSS-CT total score, LS mean change from baseline to Week 8 (participants with NT1 [3]; 0.5 mg/0.5 mg): −18.2
NSS-CT total score, LS mean change from baseline to Week 8 (participants with NT1 [3]; 2 mg/2 mg): −21.0
NSS-CT total score, LS mean change from baseline to Week 8 (participants with NT1 [3]; 2 mg/5 mg): −21.1
NSS-CT total score, LS mean change from baseline to Week 8 (participants with NT1 [3]; 7 mg): −17.2
Occurrence of TEAEs (participants with NT2; Compound A-treated participants (28/47), 8 weeks): 59.6%
Serious TEAEs (participants with NT2; parent and LTE study): no serious TEAEs
Participants discontinued due to TEAEs (participants with NT2; parent study (arm not stated)): Two
